From publication PMC6710338, “Turning a Collagenesis-Inducing Peptide Into a Potent Antibacterial and Antibiofilm Agent Against Multidrug-Resistant Gram-Negative Bacteria” (Frontiers in Microbiology, 2019) come the findings set out here.

Structures are written as SMILES. Peptide text beside a SMILES is read from it.

Assay [1] concerns preformed biofilms of MDR K. pneumoniae isolates. Briefly: Effect on 24 h preformed biofilms (OD600 of planktonic phase). As to conditions: 20 × MIC, vs non-treated biofilm. The assay is classed as cell-based, Klebsiella pneumoniae. The procedure:
The efficacy of peptide 3.1-PP4 on 24 h preformed biofilms of PA002, PA004, KP004, KP007, and KP010 was also evaluated ([Gomes et al., 2014]). Briefly, biofilms were grown in TSB from a starting inoculum of 1 × 10^6 CFU/mL in 96-well microtiter plates. […] The optical density at 600 nm (OD600) was measured at time 0 and after incubation for 24 h at 37°C. The reduction in the biofilm proliferation was calculated in comparison to the respective non-treated biofilms. Two independent experiments were performed in triplicate.
In the case of control biofilms, the second 24 h growth period occurred in the absence of the peptide. Based on the apparent higher efficiency of peptide 3.1-PP4 to inhibit the formation of K. pneumoniae than P. aeruginosa biofilms, only two MDR isolates of the latter were included in this assay, whereas three MDR K. pneumoniae were tested. Optical density of the planktonic phase, as a measure of biofilm proliferation, was reduced in all peptide-treated biofilms, ranging from 3 to 21% reduction on P. aeruginosa isolates, and from 34 to 56% reduction on K. pneumoniae isolates (Table 4).

Assay [2] deals with MDR K. pneumoniae isolates (KP004, KP007, KP010). Briefly: Inhibition of biofilm formation, crystal violet assay. The assay is classed as cell-based, Klebsiella pneumoniae. Conditions: in TSB. As to the method:
The ability of peptide 3.1-PP4 to inhibit the biofilm formation by three P. aeruginosa isolates (PA002, PA004, Pa3) and by three K. pneumoniae isolates (KP004, KP007 and KP010) was assessed at concentrations equal to the MIC, 1/2 × MIC and 1/4 × MIC in tryptic soy broth – (TSB – Liofilchem s.r.l., Italy) using the crystal violet assay as reported by [Gomes et al. (2014)]. Two independent experiments were performed in triplicate.
Some of the MDR isolates of P. aeruginosa and K. pneumoniae were randomly selected to form biofilms in the absence (controls) and presence (at MIC, 1/2 × MIC and 1/4 × MIC) of the peptide 3.1-PP4. In this assay, the test compounds were used at sub-inhibitory concentrations, since if they had been present at the MIC or higher concentrations, bacteria would be killed before starting to produce the biofilms.
FIGURE 1 Biofilm biomass quantitation of biofilms formed in the presence of peptide 3.1-PP4. Biofilms of three MDR P. aeruginosa (PA002, Pa3, and PA004) and of three MDR K. pneumoniae (KP004, KP007, and KP010) were formed in the presence of the peptide at three different concentrations, MIC, 1/2 × MIC, and 1/4 × MIC. Control biofilms were grown in absence of the peptide. Two independent experiments were performed in triplicate. Error bars represent SD. […]

Another assay relates to P. aeruginosa ATCC 27853. In words: MIC, broth microdilution (CLSI), ATCC reference strain. Format: cell-based, Pseudomonas aeruginosa. The procedure: The minimum inhibitory concentration (MIC) of synthetic peptides was determined using the broth microdilution method in cation-adjusted Mueller-Hinton broth (MHB2 – Sigma-Aldrich, St. Louis, MO, United States), according to the recommendations of the Clinical and Laboratory Standards Institute ([CLSI, 2012]), against four reference strains, namely, P. aeruginosa ATCC 27853, E. coli ATCC 25922, S. aureus ATCC 25923 and Enterococcus faecalis ATCC 29212. MIC values of peptide 3.1-PP4 were also determined against MDR clinical isolates of P. aeruginosa (PA002, PA004, Pa3, Pa4), E. coli (Ec1, Ec2, EC001, EC002, EC003) and K. pneumoniae (KP004, KP007, KP010). The peptides were tested in the concentration range of 1–1024 μg/mL. The minimum bactericidal concentration (MBC) was determined as previously reported ([Bessa et al., 2018]). According to CLSI guidelines for antimicrobial susceptibility testing, MIC values were determined for all peptides against ATCC reference strains of two Gram-positive (S. aureus ATCC 25923 and E. faecalis ATCC 29212), and two Gram-negative (P. aeruginosa ATCC 27853 and E. coli ATCC 25922) bacterial species, and are shown in Table 2.
In general terms: Dilution methods test growth across graded concentrations, often in twofold steps.

Assay [3] relates to biofilms of PA004, KP007, and KP010. Briefly: CLSM imaging of biofilms after Live/Dead staining. The assay is classed as cell-based, P. aeruginosa and K. pneumoniae. Conditions: qualitative. As to the method: For confocal laser scanning microscopy (CLSM) imaging, 24 h biofilms of PA004, KP007, and KP010 were formed in μ-Dish (35 mm, high), ibidi Polymer Coverslips (ibidi GmbH, Planegg-Martinsried, Germany) as previously described by [Bessa et al. (2018)]. Biofilms were non-treated – controls (only medium was used) or treated with 3.1-PP4 at a concentration of 20 × MIC. After 24 h, all biofilms were stained using the LIVE/DEAD^TM BacLight^TM bacterial viability kit (Molecular Probes, Thermo Fisher Scientific, MA, United States). Biofilms were visualized under a laser scanning confocal system Leica TCS SP5 II (Leica Microsystems, Germany), equipped with an inverted (i) microscope Leica DMI6000-CS, using a HC PL APO CS 63x/1.30 Glycerine 21°C objective and the lasers Diode 405 nm and DPSS561 561 nm, and (ii) the LAS AF software.
To gain further insight into the peptide’s effects on the bacterial biofilms, a Live/Dead staining assay using CLSM was carried out, where untreated and peptide-treated biofilms delivered the images depicted in Figure 2. […] Noteworthy, only bacterial cells, not biofilm matrix, are stained when the Live/Dead staining is used, which means that only cells within the biofilm are observed.

`CC(C)C[C@H](NC(=O)[C@H](Cc1c[nH]c2ccccc12)NC(=O)[C@H](CCCCN)NC(=O)[C@H](CC(C)C)NC(=O)[C@H](CC(C)C)NC(=O)[C@H](CCCCN)NC(=O)[C@@H](N)CCCCN)C(=O)N[C@@H](CC(C)C)C(=O)N[C@@H](CCCCN)C(=O)N[C@@H](CC(C)C)C(=O)N[C@@H](CC(C)C)C(=O)N[C@@H](CCCCN)C(=O)N[C@H](C(=O)N[C@H](C(=O)N[C@@H](CCCCN)C(=O)N[C@@H](CO)C(N)=O)[C@@H](C)O)[C@@H](C)O` [Peptide 3.1-PP4] (H-KKLLKWLLKLLKTTKS-NH2; N-terminus assumed): the “% reduction in biofilm proliferation upon treatment” value in assay [1] (isolate KP004, 24 h preformed biofilm) was 56%; in assay [1] (isolate KP007, 24 h preformed biofilm) it was 34%; in assay [1] (isolate KP010, 24 h preformed biofilm), 49%. Besides, the “biofilm formation (crystal violet absorbance at 595 nm)” value in assay [2] (peptide at MIC, K. pneumoniae isolates) is given as “no biofilm was actually produced”; in assay [2] (peptide at sub-inhibitory concentrations (1/2 and 1/4 of the MIC), vs control biofilm) it was “able to reduce the biofilm formed”. Besides, the MIC in the assay with P. aeruginosa ATCC 27853 (ATCC 27853) is 2.1 µM; against P. aeruginosa ATCC 27853 (P. aeruginosa ATCC 27853, broth microdilution in MHB2, CLSI, range tested 1–1024 μg/mL), 4 µg/mL; in the assay with P. aeruginosa ATCC 27853 (P. aeruginosa ATCC 27853, broth microdilution in MHB2, CLSI, value in parentheses), 2 µM. The “ratio of red- to green-stained bacterial cells (Live/Dead, CLSM)” value in assay [3] (24 h biofilms of PA004, KP007, KP010 treated 24 h at 20 × MIC, vs untreated) is “consistently higher in peptide-treated”. Also, the “impact on biofilm (Live/Dead, CLSM)” value in assay [3] (isolate KP010, 24 h biofilm treated 24 h at 20 × MIC) was “significant biofilm disaggregation”.

What is called MIC is the lowest concentration found to suppress growth.
